Where no end group is shown, it is not given here.
Columns and labels:
Format in all cases: cell-based
[1] = tested on: human Kir2.1 channels; assay: Density of IKir2.1 by whole-cell patch-clamp in CHO cells co-transfected with the cDNA encoding the peptide; settings: CHO cells expressing Kir2.1 plus cDNA of the peptide (SEQ ID NO: 5), vs cells transfected only with Kir2.1 channels
Procedure: To do this, CHO cells were transfected with the cDNA that encodes the human cardiac channels (Kir2.1) that generate IK1 (Origene, USA) (SEQ ID NO: 22), co-transfecting cells, or not, with the cDNA described in SEQ ID NO: 5. […] The sampling frequency was 4 kHz and the data, filtered at a frequency of 2 kHz, were stored on hard disks for further analysis using the CLAMPFIT application of the pCLAMP software. The current (IKir2.1) was recorded by applying 250 ms pulses from -120 to +20 mV from a holding potential of -60 mV. The density of the same was obtained by normalising the amplitude of IKir2.1 at the end of the pulse by the capacitance of each cell (pA/pF). […] Like in example 2.1, each point represents the mean±SEM of "n" experiments obtained from at least 3 different CHO cell plates. One-way ANOVA followed by the Tukey test. * P<0.05 vs. cells transfected only with Kir2.1 channels.

[2] = tested on: human Nav1.5 channels; assay: Density of INa by whole-cell patch-clamp in CHO cells co-transfected with the cDNA encoding the peptide; settings: CHO cells expressing Nav1.5 plus cDNA of the peptide, vs cells transfected only with Nav1.5 channels
Procedure: To analyse the effect of the peptides designed in example 1 on INa and IK1, the cDNA that encodes SEQ ID NO: 3 or SEQ ID NO: 4, described in SEQ ID NO: 5 and 20, respectively, was cloned into a pcDNA3.1^(+)® vector (Invitrogen) for transfection of Chinese hamster ovary (CHO) cells that were in turn transfected with the cDNA that encodes the human Nav1.5 channels (SEQ ID NO: 21). The CHO cells were further co-transfected with the EBO-pcD leu 2 vector (0.5 µg), which encodes the expression of the CD8 surface antigen. The subsequent addition of anti-CD8 antibody, bonded to Dynabeads M450® microspheres, allowed the cells that had been transfected to be identified. […] The currents were recorded at 20-22°C using an Axopatch 200B amplifier, filtered at half the sampling frequency and stored in a computer for further analysis. […] The capacitive current artefacts generated after the application of pulses from 0 mV to +10 mV were recorded at 50 kHz (filtered at 10 kHz) to calculate the capacitance of the cell, the access resistance and the input impedance. […] INa was recorded by applying 50 ms pulses from a holding potential of -120 mV to potentials between -80 and +50 mV in 5 mV increments. […]

[3] = tested on: human iPSC-derived cardiomyocytes; assay: INa, IK1 and INaL by patch-clamp in cardiomyocytes infected with adeno-associated virus encoding the peptide; settings: hiPSC-CM
Excerpt: One-way ANOVA followed by the Tukey test.

[4] = tested on: human minimal promoter of the SCN5A gene; assay: Luciferase assay in hEK-293 cells, minimal promoter of SCN5A; settings: hEK-293, co-transfected with cDNA SEQ ID NO: 5, 48 hours
Procedure: (§1) 48 hours after transfection, luciferase assays were performed using the LightSwitch Luciferase Assay reagent, also from Active Motif, and a Berthold luminometer. All assays were performed in triplicate and each point represents the mean of each technical triplicate.

[5] = tested on: minimal promoter of the human SCN5A gene; assay: Luciferase promoter assay in hEK-293 cells, SCN5A; settings: hEK-293 cells co-transfected with cDNA SEQ ID NO: 5; 48 hours after transfection
Procedure: as §1

[6] = infection 48 hours before recording, vs Ad-td-Tomato

Sequence | density of IKir2.1 [1] | density of INa [2] | INaL ([3]; TTX (10 µM) sensitive sustained current as percentage of the current peak) | density of IK1 [3, 6] | density of INa [3, 6] | effect on the minimal promoter of the human SCN5A gene [4] | effect on the minimal promoter of the human SCN5A gene (luciferase) [5]
RFTRESLAAIE [DECA-11, RFTRESLAAIE] | significantly increase the density of IKir2.1 | significantly increase the density of INa | does not increase INaL | significantly increase the density of INa and IK1 | significantly increase the density of INa and IK1 | no significant effect | –
RFTRESLAAIE (listed as Homo sapiens) [SEQ ID NO: 3, 11-amino acid peptide, amino acids 15-25 of human Nav1.5] | – | – | – | – | – | – | no significant effect

Source: patent EP4786486A1, “PEPTIDES FOR TREATING CARDIAC DISEASES” (Universidad Complutense De Madrid, priority 2023, dated 2025)
